≈ marks a conversion by molar mass, not a printed value. Read-outs that look alike come from different tables or passages of the source.
Key:
PRPP synthetase = PRPP synthetase (UniProt P0A717); assay: PRPP synthetase reaction, conversion to diphosphates and inhibition of AMP phosphorylation; assay type: biochemical; settings: compound as substrate of PRPP synthetase
Protocol: Enzymatic Conversion of Acyclic Nucleoside Phosphonates and Nucleotide 5′-Monophosphate Analog to Their Antivirally Active Diphosphates (Triphosphate Equivalents). Substrate affinities of acyclic nucleoside phosphonates 4, 20, 21, and dinucleotide analog 24 for PRPP synthetase as well as their inhibitory effect against the enzyme were evaluated according to the established procedures. See, e.g., Balzarini et al. (1991) J. Biol. Chem. 266: 8686-8689 and references cited therein. The assays were then terminated after 4 h by the addition of MeOH. HPLC on an anion-exchange Partisphere column was used to analyze the formation of […] 21pp, PMEApp, 4pp, 20pp, and 24pp.

HIV-1 (IIIB) = assay: microbe, parasite or virus in culture; assay type: cell-based; settings: Human immunodeficiency virus 1, IIIB
[1] = tested on: moloney murine sarcoma virus (MSV); assay: Inhibition of MSV cytopathogenicity in CEM cells (cell-protection assay); assay type: cell-based; settings: Moloney murine sarcoma virus, CCRF-CEM, read-out: IC50 MSV
[2] = Lipophilicity, 1-octanol/water partition coefficient
[3] = tested on: herpes simplex type 1 virus (HSV-1) (KOS); assay: Inhibition of HSV-1 cytopathogenicity in Vero cell culture; assay type: cell-based; settings: for IC50: Human alphaherpesvirus 1, Vero, read-out: IC50 HSV-1 (KOS)
[4] = target: T1, calf mucosal adenosine deaminase (ADA, EC 3.5.4.4) (Bos taurus, UniProt P56658); assay: Substrate activity and competitive inhibition of adenosine deaminase; assay type: biochemical; settings: for rel. Vmax: compound as ADA substrate, relative to ara A 3 = 1.0
T1 sequence (P56658 1-363): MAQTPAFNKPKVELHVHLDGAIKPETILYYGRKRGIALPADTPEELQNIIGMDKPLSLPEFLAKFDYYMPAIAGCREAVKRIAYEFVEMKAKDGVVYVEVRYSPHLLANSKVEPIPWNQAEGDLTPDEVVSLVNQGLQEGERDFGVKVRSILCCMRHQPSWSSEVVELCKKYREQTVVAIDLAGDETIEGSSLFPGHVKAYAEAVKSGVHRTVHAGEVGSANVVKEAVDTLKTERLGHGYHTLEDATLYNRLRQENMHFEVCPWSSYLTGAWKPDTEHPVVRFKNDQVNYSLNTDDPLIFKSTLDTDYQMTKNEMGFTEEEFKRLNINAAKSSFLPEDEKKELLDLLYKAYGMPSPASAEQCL

HIV-2 (LAV-2) = assay: Inhibition of HIV-2 cytopathogenicity in MT4 cells; assay type: cell-based, human immunodeficiency virus
[5] = tested on: human cytomegalovirus (AD-169); assay: Inhibition of HCMV cytopathogenicity in Vero cell culture; assay type: cell-based; settings: for IC50: read-out: IC50 HCMV (AD-169)
[6] = Solubility in water (phosphate buffer, UV absorbance); settings: for solubility at 20 h: pH 6.8, aqueous buffer, thermodynamic from solid
[7] = tested on: Snake venom phosphodiesterase; assay: Activity of snake venom phosphodiesterase against nucleotide analogs; settings: pH 9.2, 37° C., 8 h
[8] = tested on: thymidine kinase-deficient (TK−) varicella-zoster virus (YS/R); assay: microbe, parasite or virus in culture; assay type: cell-based; settings: for IC50: Human alphaherpesvirus 3, Vero, read-out: IC50 TK−VZV (YS/R)
HSV-1 (KOS) = assay: Anti-HSV-1 activity in vivo, HSV-1-induced mortality in NMRI mice; settings: 6 days; for mean day of animal death / mean day of symptom initiation: terminated day 21; for protection against HSV-induced mortality: 150 mg/kg dose level i.p.; for responders at 100 mg/kg / responders at 150 mg/kg / responders at 250 mg/kg: Human alphaherpesvirus 1, ip, 504 h
CEM cells = assay: Toxicity toward CEM cells
MT4 cells = assay: Toxicity toward MT4 cells
[9] = tested on: thymidine kinase-positive (TK+) varicella-zoster virus (YS); assay: Inhibition of TK+ VZV cytopathogenicity in Vero cell culture; assay type: cell-based
[10] = LD50 and toxicity in mice, intraperitoneal
HSV thymidine kinase = HSV thymidine kinase (Human herpesvirus 1, UniProt P0DTH5); assay: Phosphorylation of nucleosides by HSV thymidine kinase; assay type: biochemical
Chain of HSV thymidine kinase (P0DTH5 whole entry, looked up): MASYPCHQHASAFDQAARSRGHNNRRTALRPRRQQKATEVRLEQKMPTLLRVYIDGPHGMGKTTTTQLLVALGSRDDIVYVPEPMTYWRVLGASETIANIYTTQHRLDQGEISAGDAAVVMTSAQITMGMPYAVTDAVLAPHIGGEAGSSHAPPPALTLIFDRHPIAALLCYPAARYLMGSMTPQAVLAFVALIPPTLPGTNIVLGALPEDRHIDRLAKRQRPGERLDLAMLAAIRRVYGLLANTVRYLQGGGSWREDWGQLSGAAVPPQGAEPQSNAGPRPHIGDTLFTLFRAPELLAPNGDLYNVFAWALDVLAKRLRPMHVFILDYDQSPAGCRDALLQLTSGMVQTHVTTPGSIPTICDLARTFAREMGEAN

[11] = tested on: Vero cell thymidine kinase; assay: Phosphorylation of nucleosides by Vero cell thymidine kinase; assay type: biochemical
[12] = tested on: herpes simplex type 2 virus (HSV-2) (G); assay: Inhibition of HSV-2 cytopathogenicity in Vero cell culture; assay type: cell-based; settings: 50% inhibition of cytopathogenicity, for 1:1 mixtures IC50 refers to known antiviral drugs
[13] = 100 mg/kg/day i.p., read-out: percentage of HSV-1-infected mice alive at day 21 postinfection
[14] = 100 mg/kg/day i.p., read-out: percentage of HSV-1-infected mice without symptoms at day 21 postinfection
[15] = 150 mg/kg/day i.p., read-out: percentage of HSV-1-infected mice alive at day 21 postinfection
[16] = 150 mg/kg/day i.p., read-out: percentage of HSV-1-infected mice without symptoms at day 21 postinfection
[17] = 250 mg/kg/day i.p., read-out: percentage of HSV-1-infected mice alive at day 21 postinfection
[18] = 250 mg/kg/day i.p., read-out: percentage of HSV-1-infected mice without symptoms at day 21 postinfection
[19] = Vero cell culture, 50% inhibition of cytopathogenicity, for 1:1 mixtures IC50 refers to known antiviral drugs

SMILES: Nc1ncnc2c1ncn2[C@@H]1O[C@H](COP(=O)(O)O)[C@@H](O)[C@H]1O [AMP 21, adenosine 5′-monophosphate, reference compound]
- Km (PRPP synthetase): 0.24 mM

SMILES: Nc1ncnc2c1ncn2[C@@H]1O[C@H](COP(=O)(O)O)[C@@H](OP(=O)(O)COCCn2cnc3ncnc(N)c32)[C@H]1O [Compound 24, 9-[5′-O-(phosphono)-β-D-furanosyl]adenine-3′-[[1-(adenin-7-yl-ethoxy)methyl]phosphonate]]
- IC50 (HIV-1 (IIIB); MT4, read-out: IC50 HIV-1 (IIIB)): 5.9 µg/mL (≈ 9.79 µM)
- IC50 [1]: 17 µg/mL (≈ 28.2 µM)
- logP at […] ([2]; 1-octanol/phosphate buffer): 0.12
- IC50 [3]: 7 µg/mL (≈ 11.6 µM)
- Vmax less than that of ara-A 3 ([4]; ADA substrate): about 95%
- type of ADA inhibition in words ([4]; ara-A used as substrate): competitive inhibition
- rel. Vmax [4]: 9.78 × 10^−2
- Ki ([4]; inhibition of ADA with ara-A 3 as substrate): 99.7 µM
- IC50 (HIV-2 (LAV-2); Human immunodeficiency virus 2, MT4, read-out: IC50 HIV-2 (LAV-2)): 6.4 µg/mL (≈ 10.6 µM)
- IC50 ([5]; Human betaherpesvirus 5, AD169, Vero): 11 µg/mL (≈ 18.3 µM)
- solubility at 20 h ([6]; 0.10 m phosphate buffer): 3080 µg/mL (≈ 5110 µM)
- yield of 5′-dephosphorylated product with snake venom phosphodiesterase [7]: about 80%
- IC50 [8]: 4.2 µg/mL (≈ 6.97 µM)
- mean day of animal death (HSV-1 (KOS); 100 mg/kg/day i.p.): 19.5 ± 1.2 days
- mean day of symptom initiation (HSV-1 (KOS); 100 mg/kg/day i.p.): 16.0 ± 1.7 days
- protection against HSV-induced mortality (HSV-1 (KOS)): full protection
- mean day of animal death (HSV-1 (KOS); 150 mg/kg/day i.p.): >21 days
- mean day of symptom initiation (HSV-1 (KOS); 150 mg/kg/day i.p.): 19.3 ± 1.6 days
- mean day of animal death (HSV-1 (KOS); 250 mg/kg/day i.p.): >21 days
- mean day of symptom initiation (HSV-1 (KOS); 250 mg/kg/day i.p.): >21 days
- responders at 100 mg/kg (HSV-1 (KOS); [13]): 90%
- responders at 100 mg/kg (HSV-1 (KOS); [14]): 70%
- responders at 150 mg/kg (HSV-1 (KOS); [15]): 100%
- responders at 150 mg/kg (HSV-1 (KOS); [16]): 85%
- responders at 250 mg/kg (HSV-1 (KOS); [17]): 100%
- responders at 250 mg/kg (HSV-1 (KOS); [18]): 100%

SMILES: COC1=C(OC)/C(=C/COP(=O)(O)OC[C@H]2O[C@@H](n3cnc4c(N)ncnc43)[C@H](O)[C@@H]2OP(=O)(O)COCCn2cnc3ncnc(N)c32)OC1=O [Compound 25, 9-[[(Z)-4-(ethylidene)-2,3-dimethoxy-Δ^a,b-butenolide]-β-D-furanosyl]adenine-3′-[[1-(adenin-7-yl-ethoxy)methyl]phosphonate]-4,5′-phosphate]
- IC50 (HIV-1 (IIIB); MT4 cells, average of duplicates, read-out: IC50 HIV-1 (IIIB)): 4.9 µg/mL (≈ 6.36 µM)
- CEM cell, concentration reducing the number of viable uninfected cells by 50% (CEM cells): >300 µg/mL
- IC50 ([1]; CEM cells, average of duplicates): 13 µg/mL (≈ 16.9 µM)
- Vero cell, concentration causing microscopically visible change or disruption in about 50% of the cell sheet (Vero cells; African green monkey): 350 µg/mL
- MT4 cell, concentration reducing the number of viable uninfected cells by 50% (MT4 cells): >300 µg/mL
- logP at […] ([2]; 1-octanol/water (0.10 M phosphate buffer)): 1.37
- IC50 [3]: 3 µg/mL (≈ 3.89 µM)
- ADA substrate / inhibitor property in words [4]: neither a good substrate nor an inhibitor
- IC50 (HIV-2 (LAV-2); Human immunodeficiency virus 2, MT4 cells, average of duplicates, read-out: IC50 HIV-2 (LAV-2)): 4.2 µg/mL (≈ 5.45 µM)
- IC50 TK+VZV (YS) [9]: 1.7 µg/mL (≈ 2.21 µM)
- LD50 ([10]; NMRI, mouse, in vivo, ip): 675 mg/kg
- level up to which no toxicity was shown ([10]; mice, intraperitoneal): 400 mg/kg
- IC50 ([5]; Human betaherpesvirus 5, AD169, Vero cell culture, 50% inhibition of cytopathogenicity, for 1:1 mixtures IC50 refers to known antiviral drugs): 4.1 µg/mL (≈ 5.32 µM)
- HeLa cell, concentration causing microscopically visible change or disruption in about 50% of the cell sheet (HeLa cells; human): 326 µg/mL
- solubility at 20 h ([6]; phosphate buffer): 5160 µg/mL (≈ 6700 µM)
- stability to snake venom phosphodiesterase in words [7]: completely resistant
- IC50 [8]: 2 µg/mL (≈ 2.6 µM)
- mean day of animal death (HSV-1 (KOS); 100 mg/kg/day i.p.): >21 days
- mean day of symptom initiation (HSV-1 (KOS); 100 mg/kg/day i.p.): 19.6 ± 1.5 days
- protection against HSV-induced mortality (HSV-1 (KOS)): full protection
- mean day of animal death (HSV-1 (KOS); 150 mg/kg/day i.p.): >21 days
- mean day of symptom initiation (HSV-1 (KOS); 150 mg/kg/day i.p.): >21 days
- mean day of animal death (HSV-1 (KOS); 250 mg/kg/day i.p.): >21 days
- mean day of symptom initiation (HSV-1 (KOS); 250 mg/kg/day i.p.): >21 days
- responders at 100 mg/kg (HSV-1 (KOS); [13]): 100%
- responders at 100 mg/kg (HSV-1 (KOS); [14]): 94%
- responders at 150 mg/kg (HSV-1 (KOS); [15]): 100%
- responders at 150 mg/kg (HSV-1 (KOS); [16]): 100%
- responders at 250 mg/kg (HSV-1 (KOS); [17]): 100%
- responders at 250 mg/kg (HSV-1 (KOS); [18]): 100%

SMILES: Nc1ncnc2c1ncn2[C@@H]1O[C@H](CO)[C@@H](O)[C@@H]1O [ara A 3, 9-(β-D-arabinofaranosyl)adenine, reference compound]
- rel. Vmax, HSV thymidine kinase (HSV thymidine kinase): <3.0
- effect on the rate of phosphorylation of acyclovir 2 in words (HSV thymidine kinase; mixture with acyclovir 2 (w/w=1:1)): did not induce any increase
- Vero cell, concentration causing microscopically visible change or disruption in about 50% of the cell sheet (Vero cells): 89 µg/mL
- log P (1-octanol/water) ([2]; P = [substrate]1-octanol/[substrate]H2O, phosphate buffer 0.10 M): −0.50
- IC50 HSV-1 (KOS) ([3]; Vero cell culture, 50% inhibition of virus-induced cytopathogenicity, mean of duplicates, for 1:1 (W/W) mixtures IC50 refers to known antiviral drugs): 8.8 µg/mL (≈ 32.9 µM)
- rel. Vmax [4]: 1.0
- IC50 TK+VZV (YS) [9, 19]: >128 µg/mL
- IC50 HCMV (AD-169) [5, 19]: 27 µg/mL (≈ 101 µM)
- HeLa cell, concentration causing microscopically visible change or disruption in about 50% of the cell sheet (HeLa cells): 73 µg/mL
- solubility in water ([6]; phosphate buffer 0.10 M, pH 6.8, agitated 20 h): 480 µg/mL (≈ 1800 µM)
- Km ([11]; apparent Km, 37° C., pH 7.5): 13 mM
- rel. Vmax, Vero cell thymidine kinase ([11]; relative to thymidine = 1.0 × 10^2): <3.0
- IC50 HSV-2 (G) [12]: >128 µg/mL
- IC50 TK−VZV (YS/R) [8, 19]: >128 µg/mL

Source: patent publication US6825348B2, “Antiviral compounds” (Academia Sinica, priority 2002, dated 2004)
